According to patent US12473594B2, “Chemical tagging-based method for modified nucleoside sequencing, enrichment, and measurement” (PEKING UNIVERSITY, priority 2019, dated 2025):

Assay: Half-life of DTT-6-A and hm^6A in aqueous solutions with different pH values
Assay type: physicochemical
Settings: aqueous solution, neutral environment
Experimental: In order to study whether the stability of product (DTT-6-A) produced by the reaction of hm^6A and DTT was improved compared with hm^6A, half-life of DTT-6-A in aqueous solutions with different pH values was measured.

- half-life: 2 h
Structure (SMILES): OCNc1ncnc2c1ncn2[C@@H]1O[C@H](CO)[C@@H](O)[C@H]1O [hm^6A, N^6-hydroxymethyl adenine nucleoside]
